Test results from US20200087625A1, “METHODS FOR ISOLATING, EXPANDING AND ADMINISTERING CANCER SPECIFIC CD8+ T CELLS” (priority 2017, published 2020).

Tested on: CD8+ T cells
Assay: CD8+ T cell activation (mLN flow cytometry) and lung histology in IV metastasis model
Format: in vivo, BALB/c mice
Conditions: day 21, vs vehicle
Procedure: FIGS. 23A-23G. Systemic administration of […] induces tumor-specific CD8^+ T cells. (A) Protocol of IV metastasis model. (B) BALB/c mice (n=B-15/group) were i.v. injected with 4T1 cells (2×10^4) on day 0.1V270 (2, 20, or 200 μg/injection) was i.p. administered on days −1, 7, 10, and 14. The numbers of lung nodules were counted on day 21. (C) 200 μg/injection 1V270 was i.p. administered on days −1 or 0 followed by days 7, 10, and 14 where indicated. The numbers of lung nodules were counted on day 21. Each dot indicates an individual mouse and horizontal and vertical bars indicate means±SEM. *P<0.05, **P<0.01 Kruskal-Wallis test with Dunn's post hoc test comparing treatment groups against vehicle group. (D-G) BALB/c mice (n=10/group) were treated with 1V270 (200 μg/injection) on day-1 and 4T1 cells were inoculated on day 0. (D,E) Three weeks later, mLNs cells were stained for CD3 and CD8. Intracellular granzyme B (D) and IFNγ (E) were analyzed by flow cytometry. Data are representative of 2 independent experiments showing similar results. *P<0.05, by the Mann-Whitney U test comparing the 1V270 treatment groups against the vehicle treated group. (F) Histological analysis of lungs on day 21. Representative images of H&E staining and immunohistochemical staining for CD3 and CD45. Scale bar: 100 μm. Original magnification ×200. (G) Tumor-specific cytotoxicity was examined using 4T1 cells as target cells and BALB/3T3 cells as irrelevant target cells. […] The percent specific killing was calculated. Data were analyzed by two-way ANOVA using a Bonferroni post hoc test comparing treatment groups against vehicle group. *P<0.05. […]
To make the single cell suspensions, tumors were dissociated using the mouse tumor dissociation kit (MiltenyiBiotec, San Diego, Calif.) and the gentle MACSOcto Dissociator according to the manufacture's protocol. […] Total cell number was counted by the ViaCount assay (MilliporeSigma, Darmstadt, Germany). […]

SMILES: CCCCCCCCC=CCCCCCCCC(=O)OCC(COP(=O)(O)OCCNC(=O)c1ccc(Cn2c(=O)[nH]c3c(N)nc(OCCOC)nc32)cc1)OC(=O)CCCCCCCC=CCCCCCCCC (stereo not drawn) [1V270]
- infiltration of CD45+CD3+ cells in the pulmonary tumor microenvironment (histology): higher infiltration
- percentage of IFNγ positive CD8+ T cells (mLN, 1V270 200 μg day -1): Significantly higher percentages
- percentage of granzyme B positive CD8+ T cells (mLN, 1V270 200 μg day -1): Significantly higher percentages
